The record followed here is US12686692B2, “KRas G12D inhibitors” (Mirati Therapeutics, Inc., priority 2020, dated 2026).

Bounds are passed on as bounds.

The test system of test [1] is KRas G12D-mediated Phosphorylation of ERK. Put plainly: Inhibition of KRas G12D-mediated Phosphorylation of ERK in AGS cells. In kind it is cell-based. The note with it: Homo sapiens; AGS cells expressing G12D, 3 hours, phospho-ERK normalized to GAPDH. On the procedure: AGS cells (ATCC CRL-1739) expressing G12D were grown in DMEM medium supplemented with 10% fetal bovine serum, 10 mM HEPES, and Penicillin/Streptomycin. Cells were plated in tissue culture treated 96 well plates at a density of 40,000 cells/well and allowed to attach for 12-14 hours. Diluted compounds were then added in a final concentration of 0.5% DMSO. After 3 hours, the medium was removed, 150 μl of 4.0% formaldehyde was added and the plates incubated at room temperature for 20 minutes. The plates were washed with PBS, and permeabilized with 150 μL of ice cold 100% methanol for 10 minutes. Non-specific antibody binding to the plates was blocked using 100 μL Licor blocking buffer (Li-Cor Biotechnology, Lincoln NE) for 1 hour at room temperature.
The amount of phospho-ERK was determined using an antibody specific for the phosphorylated form of ERK and compared to the amount of GAPDH. Primary antibodies used for the detection were added as follows: Phospho-ERK(Cell Signaling cs-9101) diluted 1:500 and GAPDH(Millipore MAB374) diluted 1:5000 in Licor block+0.05% Tween 20. The plates were incubated for 2 hours at room temperature. The plates were washed with PBS+0.05% Tween 20.
Secondary antibodies used to visualize primary antibodies were added as follows: Anti-rabbit-680 diluted 1:1000 and Anti-mouse-800 diluted 1:1000 both in Licor block+0.05% Tween20, and were incubated for 1 hour at room temperature. The plates were washed with PBS+0.05% Tween 20. A 100 μl aliquot of PBS was added to each well and the plates were read on a Li-Cor Odyssey CLX plate reader.
The phospho-ERK(Thr202/Tyr204 signal was normalized to the GAPDH signal for each well and percent of DMSO control values were calculated. IC50 values were generated using a 4-parameter fit of the dose response curve.

The target of the next test is KRas G12D (Homo sapiens, UniProt P01116, G12D). Put plainly: KRas G12D Binding Assay (TR-FRET displacement of labeled tracer). The arrangement: corresponding to amino acids 1:169, produced at Array BioPharma; biotin (protein is biotinylated). The note with it: TR-FRET displacement of Cy5 labelled tracer, biotinylated GDP-loaded KRAS G12D (aa 1:169), 60 minute incubation at 22° C. On the procedure:
This Example illustrates that exemplary compounds of the present invention bind to KRas G12D and are capable of displacing a labeled tracer ligand occupying the KRas G12D binding site.
The ability of a compound to bind to KRAS G12D was measured using a TR-FRET displacement assay. Biotinylated GDP-loaded recombinant human KRAS G12D (corresponding to amino acids 1:169, produced at Array BioPharma) was incubated with a custom-made Cy5 labelled tracer, europium labelled streptavidin and compound (2% DMSO final) in buffer (50 mM HEPES [pH 7.5], 5 mM MgCl2, 0.005% Tween-20 & 1 mM DTT). After a 60 minute incubation at 22° C., the reaction was measured using a PerkinElmer EnVision multimode plate reader via TR-FRET dual wavelength detection, and the percent of control (POC) calculated using a ratiometric emission factor. […] The POC values were fit to a 4-parameter logistic curve and the IC50 value was determined as the concentration where the curve crosses 50 POC.

KRas G12D, sequence (P01116 1-169 isoform P01116-2 G12D): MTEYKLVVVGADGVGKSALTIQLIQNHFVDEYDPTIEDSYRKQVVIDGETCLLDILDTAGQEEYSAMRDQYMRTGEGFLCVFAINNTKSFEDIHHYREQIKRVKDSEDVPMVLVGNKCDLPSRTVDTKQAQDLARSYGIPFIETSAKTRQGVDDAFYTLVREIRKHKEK

`CCc1cccc2cccc(N3CCc4c(nc(OCC56CCCN5C(CO)CC6)nc4N4C[C@H]5CC[C@@H](C4)N5)C3)c12` (mixture of isomers) [Example 103, (7a-(((4-((1R,5S)-3,8-diazabicyclo[3.2.1]octan-3-yl)-7-(8-ethylnaphthalen-1-yl)-5,6,7,8-tetrahydropyrido[3,4-d]pyrimidin-2-yl)oxy)methyl)hexahydro-1H-pyrrolizin-3-yl)methanol]: the results for the IC50 (in test [1]; on KRas G12D) were 6220 nM and 3.9 nM, respectively.

In the case of `Oc1cc(N2CCc3c(nc(OCC45CCCN4C[C@H](F)C5)nc3N3CC4CCC(C3)N4)C2)c2ccccc2c1` (mixture of isomers) [Example 47, 4-(4-((1R,5S)-3,8-diazabicyclo[3.2.1]octan-3-yl)-2-((2-fluorotetrahydro-1H-pyrrolizin-7a(5H)-yl)methoxy)-5,8-dihydropyrido[3,4-d]pyrimidin-7(6H)-yl)naphthalen-2-ol], the IC50 turned out to be 537 nM in test [1] and 1 nM at KRas G12D.

As to `F[C@H]1CN2CCCC2(COc2nc3c(c(N4CC5CCC(C4)N5)n2)CCN(c2cccc(Cl)c2C2CC2)C3)C1` (mixture of isomers) [Example 17, 4-((1R,5S)-3,8-diazabicyclo[3.2.1]octan-3-yl)-7-(3-chloro-2-cyclopropylphenyl)-2-((2-fluorotetrahydro-1H-pyrrolizin-7a(5H)-yl)methoxy)-5,6,7,8-tetrahydropyrido[3,4-d]pyrimidine (racemic, trans)], the IC50 is more than 16700 nM in test [1] and 29.5 nM on KRas G12D.

As for `CCc1cccc2cccc(N3CCc4c(nc(OC[C@]56CCCN5[C@@H](COC(=O)NC)CC6)nc4N4C[C@H]5CC[C@@H](C4)N5)C3)c12` [Example 18, ((3R,7aR)-7a-(((4-((1R,5S)-3,8-diazabicyclo[3.2.1]octan-3-yl)-7-(8-ethylnaphthalen-1-yl)-5,6,7,8-tetrahydropyrido[3,4-d]pyrimidin-2-yl)oxy)methyl)hexahydro-1H-pyrrolizin-3-yl)methyl methylcarbamate], the IC50 in test [1] came to 70 nM; on KRas G12D, 2 nM.

For `CCc1cccc2cccc(N3CCc4c(nc(OC[C@]56CCCN5[C@@H](COC(=O)N(C)CCO)CC6)nc4N4C[C@H]5CC[C@@H](C4)N5)C3)c12` [Example 107, ((3R,7aR)-7a-(((4-((1R,5S)-3,8-diazabicyclo[3.2.1]octan-3-yl)-7-(8-ethylnaphthalen-1-yl)-5,6,7,8-tetrahydropyrido[3,4-d]pyrimidin-2-yl)oxy)methyl)hexahydro-1H-pyrrolizin-3-yl)methyl (2-hydroxyethyl)(methyl)carbamate], the values for the IC50 (in test [1]; on KRas G12D) were 408 nM and 2 nM, respectively.

For the compound `CCc1cccc2cccc(N3CCc4c(nc(OCC56CCCN5CCC6)nc4N4C[C@H]5CC[C@@H](C4)N5)C3)c12` [Example 10, 4-((1R,5S)-3,8-diazabicyclo[3.2.1]octan-3-yl)-7-(8-ethylnaphthalen-1-yl)-2-((tetrahydro-1H-pyrrolizin-7a(5H)-yl)methoxy)-5,6,7,8-tetrahydropyrido[3,4-d]pyrimidine], the results for the IC50 (in test [1]; at KRas G12D) were 738 nM and 1.1 nM, respectively.

For the compound `CCc1cccc2cc(O)cc(N3CCc4c(nc(OCC56CCCN5C(CF)CC6)nc4N4CC5CCC(C4)N5)C3)c12` (mixture of isomers) [Example 23, 4-(4-((1R,5S)-3,8-diazabicyclo[3.2.1]octan-3-yl)-2-((3-(fluoromethyl)tetrahydro-1H-pyrrolizin-7a(5H)-yl)methoxy)-5,8-dihydropyrido[3,4-d]pyrimidin-7(6H)-yl)-5-ethylnaphthalen-2-ol (mixture or isomers)], the values for the IC50 (in test [1]; on KRas G12D) were 119 nM and 1.1 nM, respectively.

On to `Cc1cccc2cccc(N3CCc4c(nc(OCC56CCCN5C[C@H](F)C6)nc4N4CC5CCC(C4)N5)C3)c12` (mixture of isomers) [Example 50, 4-((1R,5S)-3,8-diazabicyclo[3.2.1]octan-3-yl)-2-((2-fluorotetrahydro-1H-pyrrolizin-7a(5H)-yl)methoxy)-7-(8-methylnaphthalen-1-yl)-5,6,7,8-tetrahydropyrido[3,4-d]pyrimidine], for which the IC50 is more than 16700 nM in test [1] and 7.1 nM at KRas G12D.

Consider `CN1CCC[C@H]1COc1nc2c(c(N3C[C@H]4C[C@H](O)[C@@H](C3)N4)n1)CCN(c1cccc3cccc(Cl)c13)C2` [Example 96, (1R,5R,6S)-3-(7-(8-chloronaphthalen-1-yl)-2-(((S)-1-methylpyrrolidin-2-yl)methoxy)-5,6,7,8-tetrahydropyrido[3,4-d]pyrimidin-4-yl)-3,8-diazabicyclo[3.2.1]octan-6-ol], for which the values for the IC50 (in test [1]; at KRas G12D) were more than 16700 nM and 331 nM, respectively.

On to `F[C@H]1CN2CCCC2(COc2nc3c(c(N4CC5CCC(C4)N5)n2)CCN(c2cccc4cccc(C5CC5)c24)C3)C1` (mixture of isomers) [Example 11], for which the IC50 was more than 16700 nM in test [1] and 19.8 nM on KRas G12D.

For `c1ccc2c(N3CCc4c(nc(OCC56CCCN5CCC6)nc4N4C[C@H]5CC[C@@H](C4)N5)C3)cccc2c1` [Example 114, 4-((1R,5S)-3,8-diazabicyclo[3.2.1]octan-3-yl)-2-((hexahydro-1H-pyrrolizin-7a-yl)methoxy)-7-(naphthalen-1-yl)-5,6,7,8-tetrahydropyrido[3,4-d]pyrimidine], the IC50 in test [1] was more than 16700 nM; at KRas G12D, 34.2 nM.

For the compound `Brc1ccc(N2CCc3c(nc(OCC45CCCN4CCC5)nc3N3C[C@H]4CC[C@@H](C3)N4)C2)c2ccccc12` [Example 112, 4-((1R,5S)-3,8-diazabicyclo[3.2.1]octan-3-yl)-7-(4-bromonaphthalen-1-yl)-2-((hexahydro-1H-pyrrolizin-7a-yl)methoxy)-5,6,7,8-tetrahydropyrido[3,4-d]pyrimidine], the IC50 in test [1] was more than 16700 nM; at KRas G12D, 5460 nM.

With `CCc1cccc2cc(O)cc(N3CCc4c(nc(OCC56CCCN5C[C@H](F)C6)nc4N4CC5CCC(C4)N5)C3)c12` (mixture of isomers) [Example 6, 4-(4-((1R,5S)-3,8-diazabicyclo[3.2.1]octan-3-yl)-2-((2-fluorotetrahydro-1H-pyrrolizin-7a(5H)-yl)methoxy)-5,8-dihydropyrido[3,4-d]pyrimidin-7(6H)-yl)-5-ethylnaphthalen-2-ol (racemic, trans)], the figures for the IC50 (in test [1]; at KRas G12D) were 12 nM and 0.8 nM, respectively.

As to `CCc1cccc2cccc(N3CCc4c(nc(OC[C@]56CCCN5[C@@H](COC(=O)N5CCOCC5)CC6)nc4N4C[C@H]5CC[C@@H](C4)N5)C3)c12` [Example 97, ((3R,7aR)-7a-(((4-((1R,5S)-3,8-diazabicyclo[3.2.1]octan-3-yl)-7-(8-ethylnaphthalen-1-yl)-5,6,7,8-tetrahydropyrido[3,4-d]pyrimidin-2-yl)oxy)methyl)hexahydro-1H-pyrrolizin-3-yl)methyl morpholine-4-carboxylate], the results for the IC50 (in test [1]; on KRas G12D) were 187 nM and 1.2 nM, respectively.

For the compound `Oc1cc(N2CCc3c(nc(OC[C@@]45CCCN4C[C@H](F)C5)nc3N3C[C@H]4CC[C@@H](C3)N4)C2)c2c(Cl)cccc2c1` [Example 117, 4-(4-((1R,5S)-3,8-diazabicyclo[3.2.1]octan-3-yl)-2-(((2R,7aS)-2-fluorohexahydro-1H-pyrrolizin-7a-yl)methoxy)-5,6-dihydropyrido[3,4-d]pyrimidin-7(8H)-yl)-5-chloronaphthalen-2-ol], the values for the IC50 (in test [1]; on KRas G12D) were 76 nM and 0.7 nM, respectively.

For `Oc1cc(N2CCc3c(nc(OCC45CCCN4CCC5)nc3N3C[C@H]4CC[C@@H](C3)N4)C2)c2c(Cl)c(F)ccc2c1` [Example 116, 4-(4-((1R,5S)-3,8-diazabicyclo[3.2.1]octan-3-yl)-2-((hexahydro-1H-pyrrolizin-7a-yl)methoxy)-5,6-dihydropyrido[3,4-d]pyrimidin-7(8H)-yl)-5-chloro-6-fluoronaphthalen-2-ol], the IC50 in test [1] was determined as 46 nM; on KRas G12D, 0.5 nM.
